The NIST ThermoML archive (doi:10.1021/je400512u)

Test: xn = mol fraction of the nth substance listed
Settings: 101 kPa, Liquid; for viscosity: Concentric cylinders viscometry; for speed of sound: Pulse-echo method; for mass density: Vibrating tube method

CCCCCCCO [heptan-1-ol] + C1COCCO1
Settings | mass density [kg/m3] | speed of sound [m/s] | viscosity [mPa·s]
298.15 K, x1 = 0.0505 | 1008.57 | 1339.3 | 1.217
298.15 K, x1 = 0.1 | 991.286 | 1333.2 | 1.247
298.15 K, x1 = 0.1501 | 975.785 | 1328.6 | 1.296
298.15 K, x1 = 0.2 | 961.05 | 1324.7 | 1.344
298.15 K, x1 = 0.25 | 947.06 | 1321.5 | 1.415
298.15 K, x1 = 0.2997 | 934.312 | 1319 | 1.5
298.15 K, x1 = 0.3502 | 922.561 | 1317.4 | 1.605
298.15 K, x1 = 0.4001 | 911.608 | 1316 | 1.713
298.15 K, x1 = 0.4498 | 901.275 | 1315.2 | 1.834
298.15 K, x1 = 0.4998 | 891.612 | 1314.9 | 2
298.15 K, x1 = 0.55 | 882.643 | 1314.8 | 2.169
298.15 K, x1 = 0.6004 | 874.251 | 1315.2 | 2.365
298.15 K, x1 = 0.6501 | 866.177 | 1316 | 2.593
298.15 K, x1 = 0.7002 | 858.585 | 1316.9 | 2.861
298.15 K, x1 = 0.7493 | 851.217 | 1318.2 | 3.154
298.15 K, x1 = 0.7999 | 844.345 | 1318.9 | 3.524
298.15 K, x1 = 0.85 | 837.74 | 1321.5 | 3.943
298.15 K, x1 = 0.8998 | 831.478 | 1323.2 | 4.464
298.15 K, x1 = 0.9498 | 825.31 | 1325.4 | 5.075
298.15 K, x1 = 1 | 819.73 | 1328.3 | 5.869
303.15 K, x1 = 0.0505 | 1003.12 | 1317.9 | 1.12
303.15 K, x1 = 0.1 | 985.996 | 1312.3 | 1.145
303.15 K, x1 = 0.1501 | 970.647 | 1308.1 | 1.188
303.15 K, x1 = 0.2 | 956.055 | 1304.6 | 1.229
303.15 K, x1 = 0.25 | 942.208 | 1301.8 | 1.291
303.15 K, x1 = 0.2997 | 929.584 | 1299.7 | 1.365
303.15 K, x1 = 0.3502 | 917.951 | 1298.4 | 1.455
303.15 K, x1 = 0.4001 | 907.108 | 1297.2 | 1.547
303.15 K, x1 = 0.4498 | 896.876 | 1296.6 | 1.653
303.15 K, x1 = 0.4998 | 887.314 | 1296.6 | 1.794
303.15 K, x1 = 0.55 | 878.474 | 1296.7 | 1.937
303.15 K, x1 = 0.6004 | 870.13 | 1297.3 | 2.104
303.15 K, x1 = 0.6501 | 862.139 | 1298.3 | 2.296
303.15 K, x1 = 0.7002 | 854.631 | 1299.3 | 2.521
303.15 K, x1 = 0.7493 | 847.338 | 1300.7 | 2.766
303.15 K, x1 = 0.7999 | 840.45 | 1301.7 | 3.073
303.15 K, x1 = 0.85 | 834.009 | 1304.3 | 3.419
303.15 K, x1 = 0.8998 | 827.706 | 1306.1 | 3.847
303.15 K, x1 = 0.9498 | 821.704 | 1308.3 | 4.346
303.15 K, x1 = 1 | 816.183 | 1311.3 | 4.989
308.15 K, x1 = 0.0505 | 997.647 | 1296.7 | 1.034
308.15 K, x1 = 0.1 | 980.695 | 1291.6 | 1.055
308.15 K, x1 = 0.1501 | 965.496 | 1287.8 | 1.093
308.15 K, x1 = 0.2 | 951.048 | 1284.7 | 1.129
308.15 K, x1 = 0.25 | 937.338 | 1282.2 | 1.183
308.15 K, x1 = 0.2997 | 924.84 | 1280.4 | 1.247
308.15 K, x1 = 0.3502 | 913.324 | 1279.4 | 1.324
308.15 K, x1 = 0.4001 | 902.591 | 1278.5 | 1.403
308.15 K, x1 = 0.4498 | 892.463 | 1278.2 | 1.497
308.15 K, x1 = 0.4998 | 882.999 | 1278.4 | 1.617
308.15 K, x1 = 0.55 | 874.248 | 1278.6 | 1.739
308.15 K, x1 = 0.6004 | 865.991 | 1279.4 | 1.881
308.15 K, x1 = 0.6501 | 858.083 | 1280.5 | 2.044
308.15 K, x1 = 0.7002 | 850.647 | 1281.7 | 2.234
308.15 K, x1 = 0.7493 | 843.436 | 1283.3 | 2.44
308.15 K, x1 = 0.7999 | 836.632 | 1284.4 | 2.696
308.15 K, x1 = 0.85 | 830.254 | 1287.2 | 2.985
308.15 K, x1 = 0.8998 | 824.01 | 1289 | 3.338
308.15 K, x1 = 0.9498 | 818.076 | 1291.4 | 3.747
308.15 K, x1 = 1 | 812.61 | 1294.5 | 4.27
313.15 K, x1 = 0.0505 | 992.162 | 1275.6 | 0.957
313.15 K, x1 = 0.1 | 975.379 | 1270.9 | 0.976
313.15 K, x1 = 0.1501 | 960.33 | 1267.6 | 1.009
313.15 K, x1 = 0.2 | 946.025 | 1264.9 | 1.041
313.15 K, x1 = 0.25 | 932.425 | 1262.8 | 1.088
313.15 K, x1 = 0.2997 | 920.079 | 1261.3 | 1.143
313.15 K, x1 = 0.3502 | 908.677 | 1260.6 | 1.209
313.15 K, x1 = 0.4001 | 898.054 | 1260 | 1.278
313.15 K, x1 = 0.4498 | 888.028 | 1259.9 | 1.361
313.15 K, x1 = 0.4998 | 878.663 | 1260.3 | 1.463
313.15 K, x1 = 0.55 | 870.001 | 1260.7 | 1.568
313.15 K, x1 = 0.6004 | 861.838 | 1262.1 | 1.691
313.15 K, x1 = 0.6501 | 854.006 | 1262.9 | 1.83
313.15 K, x1 = 0.7002 | 846.648 | 1264.3 | 1.991
313.15 K, x1 = 0.7493 | 839.512 | 1266 | 2.165
313.15 K, x1 = 0.7999 | 832.79 | 1267.4 | 2.38
313.15 K, x1 = 0.85 | 826.48 | 1270.6 | 2.62
313.15 K, x1 = 0.8998 | 820.289 | 1272.2 | 2.913
313.15 K, x1 = 0.9498 | 814.421 | 1274.6 | 3.25
313.15 K, x1 = 1 | 809.011 | 1277.7 | 3.677
318.15 K, x1 = 0.0505 | 986.663 | 1254.7 | 0.888
318.15 K, x1 = 0.1 | 970.046 | 1250.5 | 0.905
318.15 K, x1 = 0.1501 | 955.144 | 1247.5 | 0.934
318.15 K, x1 = 0.2 | 940.982 | 1245.2 | 0.964
318.15 K, x1 = 0.25 | 927.545 | 1243.5 | 1.003
318.15 K, x1 = 0.2997 | 915.295 | 1242.4 | 1.052
318.15 K, x1 = 0.3502 | 904.009 | 1242 | 1.109
318.15 K, x1 = 0.4001 | 893.497 | 1241.6 | 1.168
318.15 K, x1 = 0.4498 | 883.572 | 1241.7 | 1.241
318.15 K, x1 = 0.4998 | 874.304 | 1242.3 | 1.33
318.15 K, x1 = 0.55 | 865.728 | 1243 | 1.419
318.15 K, x1 = 0.6004 | 857.642 | 1244.1 | 1.526
318.15 K, x1 = 0.6501 | 849.902 | 1245.5 | 1.645
318.15 K, x1 = 0.7002 | 842.622 | 1247 | 1.783
318.15 K, x1 = 0.7493 | 835.561 | 1248.9 | 1.93
318.15 K, x1 = 0.7999 | 828.821 | 1250.6 | 2.114
318.15 K, x1 = 0.85 | 822.668 | 1253.3 | 2.313
318.15 K, x1 = 0.8998 | 816.551 | 1255.8 | 2.557
318.15 K, x1 = 0.9498 | 810.743 | 1258.4 | 2.835
318.15 K, x1 = 1 | 805.383 | 1261.1 | 3.186
323.15 K, x1 = 0.0505 | 981.158 | 1233.5 | 0.827
323.15 K, x1 = 0.1 | 964.707 | 1230.6 | 0.842
323.15 K, x1 = 0.1501 | 949.953 | 1228.1 | 0.867
323.15 K, x1 = 0.2 | 935.93 | 1226.2 | 0.893
323.15 K, x1 = 0.25 | 922.628 | 1224.8 | 0.928
323.15 K, x1 = 0.2997 | 910.503 | 1224 | 0.971
323.15 K, x1 = 0.3502 | 899.329 | 1223.9 | 1.021
323.15 K, x1 = 0.4001 | 888.925 | 1223.7 | 1.073
323.15 K, x1 = 0.4498 | 879.103 | 1224.1 | 1.136
323.15 K, x1 = 0.4998 | 869.929 | 1224.9 | 1.213
323.15 K, x1 = 0.55 | 861.446 | 1225.7 | 1.29
323.15 K, x1 = 0.6004 | 853.441 | 1227 | 1.383
323.15 K, x1 = 0.6501 | 845.785 | 1228.6 | 1.486
323.15 K, x1 = 0.7002 | 838.579 | 1230.3 | 1.604
323.15 K, x1 = 0.7493 | 831.593 | 1232.4 | 1.73
323.15 K, x1 = 0.7999 | 824.83 | 1234.3 | 1.883
323.15 K, x1 = 0.85 | 818.738 | 1236.9 | 2.053
323.15 K, x1 = 0.8998 | 812.671 | 1239.1 | 2.258
323.15 K, x1 = 0.9498 | 807.031 | 1241.8 | 2.489
323.15 K, x1 = 1 | 801.731 | 1245.1 | 2.777
